Results: publication PMC4890880 (ACS infectious diseases, 2016)

Tests used:
HepG2-A16-CD81EGFP cells = details: sheet "2nd round"; for IC50: read-out: Tox_IC50, HepG2 cytotoxicity
[1] = tested on: Plasmodium berghei (Pb-Luc) exoerythrocytic-stage parasites; details: for normalised signal at concentration 10 (first series): concentration 10, first series of dose columns; for normalised signal at concentration 10 (second series): concentration 10, second series of dose columns; for IC50: read-out: PbLuc_IC50, Broad compounds, dose response top concentration 10; for IC50 / PbLuc_max_inhibition (%): sheet "2nd round"

Row | Structure (SMILES) | IC50 (HepG2-A16-CD81EGFP cells) [µM] | Tox_max_inhibition (%) (HepG2-A16-CD81EGFP cells) | normalised signal at concentration 0.000508053 (first series) [1] | normalised signal at concentration 0.000508053 (second series) [1] | normalised signal at concentration 0.00152416 (first series) [1] | normalised signal at concentration 0.00152416 (second series) [1] | normalised signal at concentration 0.00457247 (first series) [1] | normalised signal at concentration 0.00457247 (second series) [1] | normalised signal at concentration 0.0137174 (first series) [1] | normalised signal at concentration 0.0137174 (second series) [1] | normalised signal at concentration 0.0411523 (first series) [1] | normalised signal at concentration 0.0411523 (second series) [1] | normalised signal at concentration 0.123457 (first series) [1] | normalised signal at concentration 0.123457 (second series) [1] | normalised signal at concentration 0.37037 (first series) [1] | normalised signal at concentration 0.37037 (second series) [1] | normalised signal at concentration 1.11111 (first series) [1] | normalised signal at concentration 1.11111 (second series) [1] | normalised signal at concentration 3.33333 (first series) [1] | normalised signal at concentration 3.33333 (second series) [1] | other results
1 | C[C@@H]1CCCCO[C@@H](CN(C)S(=O)(=O)c2ccc(F)cc2)[C@H](C)CN([C@@H](C)CO)C(=O)c2cc(N(C)C)ccc2O1 [BRD-K44445002-001-01-6] | > 10 | 2 | 0.8297 | 0.9522 | 0.9815 | 1.174 | 0.6933 | 0.8769 | 0.8541 | 1.037 | 1.012 | 1.038 | 1.095 | 0.8137 | 0.8834 | 0.9753 | 1.034 | 0.8748 | 0.858 | 0.7361 | normalised signal at concentration 10 (first series) [1]: 0.7308; normalised signal at concentration 10 (second series) [1]: 0.7674; IC50 [1]: > 10 µM; PbLuc_max_inhibition (%) [1]: 31%
2 | C[C@H]1CCCCO[C@@H](CN(C)S(=O)(=O)c2ccc(F)cc2)[C@@H](C)CN([C@@H](C)CO)C(=O)c2cc(N(C)C)ccc2O1 [BRD-K31467596-001-01-7] | > 10 | 19 | 0.9636 | 1.196 | 0.9009 | 1.029 | 1.0859 | 1.054 | 0.8351 | 0.885 | 0.8724 | 1.048 | 0.8924 | 0.8988 | 0.8075 | 0.9035 | 1.0319 | 1.046 | 0.9413 | 0.9885 | normalised signal at concentration 10 (first series) [1]: 0.7997; normalised signal at concentration 10 (second series) [1]: 0.6635; IC50 [1]: > 10 µM; PbLuc_max_inhibition (%) [1]: 34%
3 | O=C(Nc1ccccc1F)N1CCCCN2[C@@H](CO)[C@@H](c3ccc(/C=C/c4ccccc4)cc3)[C@@H]2C1 [BRD-K75724375-001-01-5] | > 10 | 3.77 | 0.9105 | 0.9278 | 1.073 | 0.9037 | 0.819 | 0.9578 | 0.8286 | 0.9852 | 0.8408 | 0.7698 | 0.9337 | 1.085 | 0.7789 | 1.01 | 1.025 | 0.8416 | 0.8686 | 0.672 | normalised signal at concentration 10 (first series) [1]: 0.5018; normalised signal at concentration 10 (second series) [1]: 0.4819; IC50 [1]: > 10 µM; PbLuc_max_inhibition (%) [1]: 52%
4 | C[C@@H]1CCCCO[C@H](CN(C)S(=O)(=O)c2ccc(F)cc2)[C@H](C)CN([C@@H](C)CO)C(=O)c2cc(N(C)C)ccc2O1 [BRD-K77718491-001-01-4] | > 10 | 7 | 0.8436 | 0.9419 | 1.131 | 0.8322 | 0.8284 | 0.9071 | 1.006 | 0.921 | 0.8082 | 0.9497 | 0.9873 | 0.8645 | 0.8615 | 0.9228 | 0.9968 | 0.8769 | 0.7967 | 1.06 | normalised signal at concentration 10 (first series) [1]: 0.9825; normalised signal at concentration 10 (second series) [1]: 0.8275; IC50 [1]: > 10 µM; PbLuc_max_inhibition (%) [1]: 20%
5 | C[C@H](CO)N1C[C@H](C)[C@@H](CN(C)S(=O)(=O)c2ccc(F)cc2)OCCCC[C@H](C)Oc2ccc(N(C)C)cc2C1=O [BRD-K31169989-001-01-4] | > 10 | 13 | 0.9593 | 1.075 | 0.7705 | 0.9043 | 0.8601 | 0.8661 | 0.7407 | 1.136 | 1.052 | 0.8649 | 0.7251 | 0.9568 | 0.9029 | 0.9798 | 0.7471 | 0.8642 | 0.9659 | 0.7643 | normalised signal at concentration 10 (first series) [1]: 0.5392; normalised signal at concentration 10 (second series) [1]: 0.607; IC50 [1]: > 10 µM; PbLuc_max_inhibition (%) [1]: 46%
6 | O=C(C1CCOCC1)N1C[C@@H]2[C@H](c3ccccc31)[C@H](CO)N2C(=O)Cc1ccccn1 [BRD-K09790760-001-01-0] | > 10 | 5 | 0.7162 | 0.9348 | 0.8009 | 0.7622 | 0.9824 | 0.8311 | 0.8823 | 0.8539 | 1.052 | 0.8968 | 0.7822 | 0.8152 | 0.9579 | 1.035 | 0.8507 | 0.8044 | 0.9897 | 1.088 | normalised signal at concentration 10 (first series) [1]: 0.9272; normalised signal at concentration 10 (second series) [1]: 0.9177; IC50 [1]: > 10 µM; PbLuc_max_inhibition (%) [1]: 28%
